Assay results taken from patent US20040023994A1 (priority 2002, published 2004).
Where two headings read alike, the source gives them in different places. Marks after values point to notes of the source that are not given here.

Columns and labels:
HOP-62 = conditions: HOP-62, Non-Small Cell Lung, NCI database, cited from earlier work
OVCAR-3 = conditions: OVCAR-3, Ovarian, NCI database, cited from earlier work
SK-MEL-28 = conditions: SK-MEL-28, Melanoma, NCI database, cited from earlier work
HT29 = conditions: HT29, Colon, NCI database, cited from earlier work
NCI-H522 = conditions: NCI-H522, Non-Small Cell Lung, NCI database, cited from earlier work
SNB-75 = conditions: SNB-75, CNS, NCI database, cited from earlier work
ACHN = conditions: Renal, NCI database, cited from earlier work
HCT-116 = conditions: HCT-116, Colon, NCI database, cited from earlier work
HOP-92 = conditions: HOP-92, Non-Small Cell Lung, NCI database, cited from earlier work
SF-268 [1] = conditions: SF-268, CNS, NCI database, cited from earlier work
SK-MEL-5 = conditions: SK-MEL-5, Melanoma, NCI database, cited from earlier work
SF-268 [2] = conditions: for CC50: read-out: LC50
SK-MEL-2 = conditions: for CC50: read-out: LC50
SF-295 = conditions: for CC50: read-out: LC50
IGR-OV1 = conditions: for CC50: read-out: LC50
SN12C = assay type: cell-based; conditions: Renal, 48 h
UACC-257 = conditions: for CC50: read-out: LC50
CAKI-1 = conditions: for CC50: read-out: LC50
MDA-MB-231/ATCC = conditions: for CC50: read-out: LC50
A549/ATCC = conditions: for CC50: read-out: LC50
RPMI-8226 = conditions: for CC50: read-out: LC50
[3] = test system: Heterozygous nude CD-1 male mice; assay: Intestinal pathological analysis (crypt epithelial cell apoptosis) in treated mice; conditions: multiple doses
Method: (§1) Heterozygous nude CD-1 male mice were treated (i.p.) with multiple doses consisting of either one dose daily for three consecutive days (cis-AVTP or trans-AVTG, 21.25 μmol/kg, 6-TG, 8.5 or 21.25 μmol/kg, or vehicle; one cycle), or one dose daily for three consecutive days, repeated again five days later (cis-AVTP, trans-AVTG or 6-TG, 8.5 or 21.25 μmol/kg, or vehicle; two cycles).
(§2) The mice were sacrificed 24 h after the last treatment. Urine was collected for 24 h before initiation of treatment and every 24 h thereafter until the mice were sacrificed. Blood was collected by cardiac puncture and blood cells counted. Sections of liver, kidney, intestines, stomach and sternum were stained with hematoxylin and eosin and subjected to pathological analysis. Bone marrow smears were prepared for assessment of bone marrow cellularity. Liver function was evaluated by measuring alanine aminotransferase-(ALT) and aspartate aminotransferase (AST) activities in plasma. Kidney function was evaluated by measuring blood urea nitrogen in plasma and γ-glutamyltransferase activity and glucose levels in urine.

[4] = test system: Heterozygous nude CD-1 male mice; assay: Liver function (AST, ALT in plasma) and liver histopathology in treated mice
Method: as §1, §2

[5] = read-out: LC50 (the source's name)
[6] = A549/ATCC, Non-Small Cell Lung, 48 h

Sc1ncnc2nc[nH]c12 [6-MP, 6-mercaptopurine]
GI50 (HOP-62): 1.69 µM | TGI (HOP-62): >100 µM | CC50 (HOP-62; [5]): > 100 µM | GI50 (OVCAR-3): 0.71 µM | TGI (OVCAR-3): >100 µM | CC50 (OVCAR-3; [5]): > 100 µM | GI50 (SK-MEL-28): > 100 µM | TGI (SK-MEL-28): >100 µM | CC50 (SK-MEL-28; [5]): > 100 µM | GI50 (HT29): 3.97 µM | TGI (HT29): >100 µM | CC50 (HT29; [5]): > 100 µM | GI50 (NCI-H522): 1.67 µM | TGI (NCI-H522): >100 µM | CC50 (NCI-H522; [5]): > 100 µM | GI50 (SNB-75): 7.93 µM | TGI (SNB-75): >100 µM | CC50 (SNB-75; [5]): > 100 µM | CC50 (ACHN; [5]): > 100 µM | GI50 (ACHN): 6.3 µM | TGI (ACHN): >100 µM | TGI (HCT-116): >100 µM | CC50 (HCT-116; [5]): > 100 µM | GI50 (HOP-92): 2.6 µM | TGI (HOP-92): >100 µM | CC50 (HOP-92; [5]): > 100 µM | GI50 (SF-268 [1]): 4.03 µM | TGI (SF-268 [1]): >100 µM | CC50 (SF-268 [1]; [5]): > 100 µM | GI50 (SK-MEL-5): 8.59 µM | TGI (SK-MEL-5): >100 µM | CC50 (SK-MEL-5; [5]): > 100 µM

CC(=O)C=CSc1nc(N)nc2nc[nH]c12 [trans-AVTG, 6-(2-acetylvinylthio) guanine]
GI50 (SF-268 [2]; SF-268, CNS, 48 h): < 0.01 µM | TGI (SF-268 [2]; SF-268, CNS, 48 h): 0.43 µM | CC50 (SF-268 [2]; SF-268, CNS, 48 h): 24.4 µM | GI50 (SK-MEL-2; SK-MEL-2, Melanoma, 48 h): 1.02 µM | TGI (SK-MEL-2; SK-MEL-2, Melanoma, 48 h): 15.5 µM | CC50 (SK-MEL-2; SK-MEL-2, Melanoma, 48 h): 98.7 µM | GI50 (SF-295; SF-295, CNS, 48 h): 0.43 µM | TGI (SF-295; SF-295, CNS, 48 h): 0.92 µM | CC50 (SF-295; SF-295, CNS, 48 h): 82.9 µM | GI50 (IGR-OV1; IGR-OV1, Ovarian, 48 h): 0.03 µM | TGI (IGR-OV1; IGR-OV1, Ovarian, 48 h): 0.08 µM | CC50 (IGR-OV1; IGR-OV1, Ovarian, 48 h): 7.86 µM | GI50 (SN12C): 2.84 µM | TGI (SN12C): 14.3 µM | GI50 (UACC-257; UACC-257, Melanoma, 48 h): 11.6 µM | TGI (UACC-257; UACC-257, Melanoma, 48 h): >100 µM | CC50 (UACC-257; UACC-257, Melanoma, 48 h): > 100 µM | GI50 (CAKI-1; CAKI-1, Renal, 48 h): 0.16 µM | TGI (CAKI-1; CAKI-1, Renal, 48 h): 0.51 µM | CC50 (CAKI-1; CAKI-1, Renal, 48 h): 13.7 µM | GI50 (MDA-MB-231/ATCC; MDA-MB-231/ATCC, Breast, 48 h): 0.89 µM | TGI (MDA-MB-231/ATCC; MDA-MB-231/ATCC, Breast, 48 h): 23.6 µM | CC50 (MDA-MB-231/ATCC; MDA-MB-231/ATCC, Breast, 48 h): > 100 µM | GI50 (A549/ATCC; [6]): 5.75 µM | TGI (A549/ATCC; [6]): 32.8 µM | CC50 (A549/ATCC; [6]): > 100 µM | GI50 (RPMI-8226; RPMI-8226, Leukemia, 48 h): 0.24 µM | TGI (RPMI-8226; RPMI-8226, Leukemia, 48 h): 3.19 µM | CC50 (RPMI-8226; RPMI-8226, Leukemia, 48 h): > 100 µM

CC(=O)C=CSc1ncnc2nc[nH]c12 [cis-AVTP, 6-(2-acetylvinylthio) purine]
GI50 (SF-268 [2]; Homo sapiens, SF-268, 48 h): < 0.01 µM | CC50 (SF-268 [2]; Homo sapiens, SF-268, 48 h): 27.7 µM | TGI (SF-268 [2]; SF-268, CNS, 48 h): 0.24 µM | GI50 (SK-MEL-2; Homo sapiens, SK-MEL-2, 48 h): 0.48 µM | CC50 (SK-MEL-2; Homo sapiens, SK-MEL-2, 48 h): 40.7 µM | TGI (SK-MEL-2; SK-MEL-2, Melanoma, 48 h): 8.22 µM | GI50 (SF-295; Homo sapiens, SF-295, 48 h): 0.56 µM | CC50 (SF-295; Homo sapiens, SF-295, 48 h): 57.8 µM | TGI (SF-295; SF-295, CNS, 48 h): 11.2 µM | crypt epithelial apoptosis, large intestines [3]: no increase | crypt epithelial cell apoptosis, small intestines [3]: increased slightly | GI50 (IGR-OV1; Homo sapiens, IGROV-1, 48 h): 2 µM | CC50 (IGR-OV1; Homo sapiens, IGROV-1, 48 h): 29.8 µM | TGI (IGR-OV1; IGR-OV1, Ovarian, 48 h): 7.72 µM | ALT ([4]; 8.5 μmol/kg, two cycles): 7.8 ± 4.0^a SF U/ml | AST ([4]; 8.5 μmol/kg, two cycles): 55.1 ± 37.5^a SF U/ml | ALT ([4]; 21.25 μmol/kg, one cycle): 2.0 ± 2.0^a,* SF U/ml | AST ([4]; 21.25 μmol/kg, one cycle): 25.5 ± 4.3^a SF U/ml | ALT ([4]; 21.25 μmol/kg, two cycles): 16.0 ± 4.3^a,# SF U/ml | AST ([4]; 21.25 μmol/kg, two cycles): 60.2 ± 30.8^a SF U/ml | GI50 (SN12C; Homo sapiens): 2.03 µM | CC50 (SN12C; Homo sapiens, read-out: LC50 (the source's name)): 28.1 µM | TGI (SN12C): 5.75 µM | GI50 (UACC-257; Homo sapiens, UACC-257, 48 h): 2.4 µM | CC50 (UACC-257; Homo sapiens, UACC-257, 48 h): > 100 µM | TGI (UACC-257; UACC-257, Melanoma, 48 h): 27.4 µM | TGI (CAKI-1; CAKI-1, Renal, 48 h): 0.55 µM | GI50 (CAKI-1; Homo sapiens, CAKI-1, 48 h): 0.11 µM | CC50 (CAKI-1; Homo sapiens, CAKI-1, 48 h): 2.85 µM | GI50 (MDA-MB-231/ATCC; Homo sapiens, MDA-MB-231, 48 h): 1.27 µM | CC50 (MDA-MB-231/ATCC; Homo sapiens, MDA-MB-231, 48 h): > 100 µM | TGI (MDA-MB-231/ATCC; MDA-MB-231/ATCC, Breast, 48 h): 4.56 µM | TGI (A549/ATCC; [6]): 24.3 µM | GI50 (A549/ATCC; Homo sapiens, A549, 48 h): 6.94 µM | CC50 (A549/ATCC; Homo sapiens, A549, 48 h): 69.5 µM | GI50 (RPMI-8226; Homo sapiens, RPMI-8226, 48 h): 0.12 µM | CC50 (RPMI-8226; Homo sapiens, RPMI-8226, 48 h): > 100 µM | TGI (RPMI-8226; RPMI-8226, Leukemia, 48 h): 1.67 µM
